Assay results published in patent US11547697B2, “Heterocyclic compounds and uses thereof” (MILLENNIUM PHARMACEUTICALS, INC., priority 2009, dated 2023).
“Also recorded” adds a separate entry of the source.

Experiments:
HCT116 cells = experiment: Cell arrest assay, alone and in combination with MEK inhibitor; assay type: cell-based, human
Procedure: Cells are then incubated in the presence of DMSO or inhibitor for 20 hours. The number of cells at each stage in the cell cycle is determined and expressed as a percent of the total, with an increase in the number of cells arrested at pre-GO/G1 indicating effective inhibition of cell cycle progression.

p110γ = p110γ (Homo sapiens (Human), UniProt P48736); experiment: PI 3-Kinase (human) HTRF assay, p110γ; assay type: biochemical; settings: read-out: PI3K γ IC50
Chain of p110γ (P48736 whole entry): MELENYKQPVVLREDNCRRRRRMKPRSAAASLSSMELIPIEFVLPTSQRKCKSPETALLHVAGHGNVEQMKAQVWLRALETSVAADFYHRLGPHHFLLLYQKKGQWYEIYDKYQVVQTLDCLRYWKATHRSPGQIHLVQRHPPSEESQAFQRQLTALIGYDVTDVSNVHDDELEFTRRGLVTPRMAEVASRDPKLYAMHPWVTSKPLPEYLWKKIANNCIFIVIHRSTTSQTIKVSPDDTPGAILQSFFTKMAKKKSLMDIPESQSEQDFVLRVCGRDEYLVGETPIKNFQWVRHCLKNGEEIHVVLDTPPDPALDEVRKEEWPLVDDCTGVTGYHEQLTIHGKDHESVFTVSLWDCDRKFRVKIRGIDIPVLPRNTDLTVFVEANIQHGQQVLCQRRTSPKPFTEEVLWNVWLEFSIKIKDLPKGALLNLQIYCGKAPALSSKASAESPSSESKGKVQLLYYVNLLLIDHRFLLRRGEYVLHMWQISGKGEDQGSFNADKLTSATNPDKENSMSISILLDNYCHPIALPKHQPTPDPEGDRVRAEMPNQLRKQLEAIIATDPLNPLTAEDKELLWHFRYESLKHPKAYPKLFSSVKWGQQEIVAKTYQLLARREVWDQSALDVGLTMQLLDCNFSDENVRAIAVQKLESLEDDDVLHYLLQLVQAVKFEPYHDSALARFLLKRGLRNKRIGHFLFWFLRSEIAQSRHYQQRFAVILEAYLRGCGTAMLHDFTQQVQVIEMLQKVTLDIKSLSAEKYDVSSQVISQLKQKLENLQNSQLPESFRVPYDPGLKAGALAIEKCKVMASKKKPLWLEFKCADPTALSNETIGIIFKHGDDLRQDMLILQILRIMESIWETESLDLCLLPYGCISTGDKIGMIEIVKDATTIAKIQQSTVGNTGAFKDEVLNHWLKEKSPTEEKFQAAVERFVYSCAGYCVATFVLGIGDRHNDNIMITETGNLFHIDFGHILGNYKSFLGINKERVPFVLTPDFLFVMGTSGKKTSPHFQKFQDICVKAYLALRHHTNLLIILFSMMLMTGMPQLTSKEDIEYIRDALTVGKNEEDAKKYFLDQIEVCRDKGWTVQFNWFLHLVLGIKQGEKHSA
Procedure: An exemplary system is PI 3-Kinase (human) HTRF™ Assay from Upstate. […] Briefly, the assay is a time resolved FRET assay that indirectly measures PIP3 product formed by the activity of a PI3-K. The kinase reaction is performed in a microtitre plate (e.g., a 384 well microtitre plate). The total reaction volume is approximately 20 ul per well. In the first step, each well receives 2 ul of test compound in 20% dimethylsulphoxide resulting in a 2% DMSO final concentration. Next, approximately 14.5 ul of a kinase/PIP2 mixture (diluted in 1× reaction buffer) is added per well for a final concentration of 0.25-0.3 ug/ml kinase and 10 μM PIP2. The plate is sealed and incubated for 15 minutes at room temperature. To start the reaction, 3.5 ul of ATP (diluted in 1× reaction buffer) is added per well for a final concentration of 10 μM ATP. The plate is sealed and incubated for 1 hour at room temperature. The reaction is stopped by adding 5 ul of Stop Solution per well and then 5 ul of Detection Mix is added per well. The plate is sealed, incubated for 1 hour at room temperature, and then read on an appropriate plate reader. Data is analyzed and IC50s are generated using GraphPad Prism 5. […] For PI3K α, β, δ, and γ, the nM concentration of inhibitor to reach IC50 is provided.

[1] = tested on: 786-O cells, a human kidney carcinoma cell line; experiment: In vivo efficacy in 786-O xenograft (non-mutated PI3Kα); set-up: species or system mice; settings: FIG. 6
From the text: For example, a test compound is compared to a kinase inhibitor with specificity for mTor. […] FIG. 6 also provides biochemical potency data for the two compared inhibitors.

[2] = tested on: pAKT(S473), pAKT(T308), pS6, p4E-BP1 in MDA-MB-361, T47D, PC3 cells; experiment: Inhibition of PI3K pathway in tumor cells (Western blot of pAKT, pS6, p4E-BP1); assay type: cell-based; settings: FIG. 2; 0.1 μM, 1 μM, and 10 μM, about 2 hours
Procedure: Cells comprising one or more mutations in PI3Kα, including but not limited to breast cancer cells (e.g., MDA-MB-361 and T47D), and cells comprising one or more mutations in PTEN including but not limited to prostate cancer cells (e.g., PC3), are typically grown in cell growth media such as DMEM supplemented with fetal bovine serum and/or antibiotics, and grown to confluency. Cells are then treated with various concentrations of test compound for about 2 hours and subsequently lysed in cell lysis buffer. Lysates are subjected to SDS-PAGE followed by Western blot analysis to detect downstream signaling markers, including but not limited to pAKT(S473), pAKT(T308), pS6, and p4E-BP1.

[3] = tested on: MDA-MB-361 (PI3Kα/HER2 carcinoma) tumors; experiment: In vivo efficacy in xenogenic mouse model of breast cancer
Procedure: Blood glucose is monitored periodically following administration of treatment. […] The effect of the compounds on the localization/viability of marginal zone B cells in the spleen is also evaluated at the conclusion of treatment.

[4] = tested on: tumor cells with a PI3Kα mutation (e.g., MDA-MB-361 and T47D); experiment: Proliferation of tumor cells with PI3Kα mutation; assay type: cell-based
p110α/p85α = p110α/p85α (Homo sapiens (Human), UniProt P42336); experiment: PI 3-Kinase (human) HTRF assay, p110α/p85α; assay type: biochemical; settings: PI3K α compared with β, δ, γ
Chain of p110α/p85α (P42336 whole entry): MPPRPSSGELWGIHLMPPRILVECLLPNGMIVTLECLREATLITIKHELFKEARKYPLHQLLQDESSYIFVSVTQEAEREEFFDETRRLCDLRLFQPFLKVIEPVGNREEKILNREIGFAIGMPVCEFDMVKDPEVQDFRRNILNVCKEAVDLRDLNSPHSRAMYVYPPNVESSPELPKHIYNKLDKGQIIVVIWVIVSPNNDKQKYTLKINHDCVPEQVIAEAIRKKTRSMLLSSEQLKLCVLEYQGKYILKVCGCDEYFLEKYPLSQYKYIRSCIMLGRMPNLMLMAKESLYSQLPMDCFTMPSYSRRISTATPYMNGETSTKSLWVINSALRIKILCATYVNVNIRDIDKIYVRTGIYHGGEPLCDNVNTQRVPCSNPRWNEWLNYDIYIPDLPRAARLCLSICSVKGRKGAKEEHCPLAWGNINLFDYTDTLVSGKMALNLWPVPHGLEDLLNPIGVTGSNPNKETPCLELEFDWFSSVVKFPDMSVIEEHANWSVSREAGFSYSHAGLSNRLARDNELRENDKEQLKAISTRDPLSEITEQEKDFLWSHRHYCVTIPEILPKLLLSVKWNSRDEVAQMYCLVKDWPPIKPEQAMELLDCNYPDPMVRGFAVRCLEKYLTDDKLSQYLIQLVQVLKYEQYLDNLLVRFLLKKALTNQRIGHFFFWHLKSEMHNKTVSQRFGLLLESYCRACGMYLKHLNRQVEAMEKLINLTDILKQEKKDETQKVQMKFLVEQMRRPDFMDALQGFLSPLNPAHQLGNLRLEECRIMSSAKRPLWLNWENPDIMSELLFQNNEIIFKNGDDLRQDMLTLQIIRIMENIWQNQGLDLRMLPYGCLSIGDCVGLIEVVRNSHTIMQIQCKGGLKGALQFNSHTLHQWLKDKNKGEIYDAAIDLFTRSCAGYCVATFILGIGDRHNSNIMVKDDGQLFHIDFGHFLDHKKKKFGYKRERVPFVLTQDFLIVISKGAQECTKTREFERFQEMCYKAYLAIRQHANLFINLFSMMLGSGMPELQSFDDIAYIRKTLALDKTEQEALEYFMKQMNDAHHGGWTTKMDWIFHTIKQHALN
Chain of p110α/p85α (P27986 whole entry partner): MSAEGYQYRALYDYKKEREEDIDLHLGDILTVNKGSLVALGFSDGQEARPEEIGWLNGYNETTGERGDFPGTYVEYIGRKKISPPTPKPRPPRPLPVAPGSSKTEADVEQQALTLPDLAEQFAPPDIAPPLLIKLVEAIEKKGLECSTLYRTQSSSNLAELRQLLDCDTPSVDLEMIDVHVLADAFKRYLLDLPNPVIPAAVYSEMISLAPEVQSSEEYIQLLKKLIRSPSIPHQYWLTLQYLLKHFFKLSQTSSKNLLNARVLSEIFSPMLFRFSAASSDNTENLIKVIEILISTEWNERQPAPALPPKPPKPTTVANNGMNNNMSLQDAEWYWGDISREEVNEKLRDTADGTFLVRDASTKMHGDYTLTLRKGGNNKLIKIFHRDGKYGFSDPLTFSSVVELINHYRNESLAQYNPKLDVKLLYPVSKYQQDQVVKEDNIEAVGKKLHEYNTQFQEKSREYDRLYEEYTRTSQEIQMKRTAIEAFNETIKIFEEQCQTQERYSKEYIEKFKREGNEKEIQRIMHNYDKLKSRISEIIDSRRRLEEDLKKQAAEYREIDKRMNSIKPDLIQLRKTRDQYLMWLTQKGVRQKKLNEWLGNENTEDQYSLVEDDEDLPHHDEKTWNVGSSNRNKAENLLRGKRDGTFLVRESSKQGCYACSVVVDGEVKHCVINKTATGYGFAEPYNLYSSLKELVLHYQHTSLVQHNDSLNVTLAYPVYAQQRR

[5] = tested on: human umbilical vein endothelial cells (HUVEC); experiment: In vitro inhibition of angiogenesis, tube formation assay; assay type: cell-based; settings: FIG. 3
Procedure: Inhibition of angiogenesis in the presence of test compound is evaluated using a tube formation assay, such as by using a tube formation assay kit (e.g., commerically available from Invitrogen). Angiogenic capacity can be measured in vitro using an endothelial cell line, such as human umbilical vein endothelial cells (HUVEC). The assay is conducted according to the kit instructions, in the presence or absence of compound. Briefly, a gel matrix is applied to a cell culture surface, cells are added to the matrix-covered surface along with growth factors, with some samples also receiving an inhibitor compound, cells are incubated at 37° C. and 5% CO2 long enough for control samples (no compound added) to form tube structures (such as overnight), cells are stained using a cell-permeable dye (e.g., calcein), and cells are visualized to identify the degree of tube formation. Any decrease in tube formation relative to un-inhibited control cells is indicative of angiogenic inhibition. […] Based on doses tested and the corresponding degree of tube formation inhibition, IC50 values for tube formation are calculated. FIG. 3 also provides IC50 values for cell viability, which can be measured using any number of methods known in the art, such as staining methods that distinguish live from dead cells (e.g., Image-iT DEAD Green viability stain commercially available from Invitrogen).

Compound: Nc1nc2cc(-c3ccc4ncc(C(=O)N5CCOCC5)n4c3)ccc2o1 [compound 54]
- Arrested cells (pre-GO/G1), percent of the total (HCT116 cells; 3 μM compound 54 combined with 0.3 μM MEK inhibitor (PD0325901), 20 hours, FIG. 7): 55%
- Cell cycle arrest, single inhibitor versus DMSO control (HCT116 cells; 3 μM compound 54 or 0.3 μM PD0325901, 20 hours): some increase in cell cycle arrest by comparison to DMSO control
- Combination effect with other (MEK) inhibitors (HCT116 cells; compound 54 plus MEK inhibitor): synergistic
- Arrested cells expected by merely adding the individual effects (HCT116 cells; sum of 3 μM compound 54 alone and 0.3 μM MEK inhibitor alone, 20 hours): 40%
- IC50 (p110γ): < 10 µM
- Anti-tumor activity in 786-O tumors [1]: still showing some anti-tumor activity, has decreased activity by comparison to that seen in the MDA derived tumors
- Inhibition of the PI3K pathway (downstream signaling markers) [2]: inhibits the PI3K pathway
- Impact on blood glucose ([3]; MDA-MB-361 tumor-bearing nude mice, daily oral dosing, FIG. 4): without the impact on blood glucose
- Kinase- and tumor growth-inhibition activity ([3]; MDA-MB-361 tumors in nude mice, 30 mpk or 60 mpk test compound, 70 mpk Pan-PI3K inhibitor, daily oral lavage, FIG. 4): comparable kinase- and tumor growth-inhibition activity to the Pan-PI3K inhibitor
- Localization/viability of marginal zone B cells in the spleen ([3]; at conclusion of treatment, FIG. 5): does not affect localization/viability of marginal zone B cells
- Inhibition of proliferation of tumor cells with a PI3Kα mutation ([4]; FIG. 2): inhibits the PI3K pathway and the proliferation of tumor cells with a PI3Kα mutation
- IC50 ([4]; Homo sapiens, T47D cells, read-out: T47D proliferation): < 10 µM
- Specificity of PI3K α inhibition versus PI3K β, δ and γ (IC50, FIG. 1 / FIG. 3) (p110α/p85α): Inhibition of PI3K α at lower concentrations than those for β, δ, and γ; also recorded: specificity for PI3K α inhibition
- Potency of angiogenesis inhibition (tube formation) compared with Pan-PI3K inhibitor [5]: comparable to higher potency
